For one assay, the target named is T1, NEK1 (Homo sapiens, UniProt Q96PY6).
T1 sequence (Q96PY6 1-1258): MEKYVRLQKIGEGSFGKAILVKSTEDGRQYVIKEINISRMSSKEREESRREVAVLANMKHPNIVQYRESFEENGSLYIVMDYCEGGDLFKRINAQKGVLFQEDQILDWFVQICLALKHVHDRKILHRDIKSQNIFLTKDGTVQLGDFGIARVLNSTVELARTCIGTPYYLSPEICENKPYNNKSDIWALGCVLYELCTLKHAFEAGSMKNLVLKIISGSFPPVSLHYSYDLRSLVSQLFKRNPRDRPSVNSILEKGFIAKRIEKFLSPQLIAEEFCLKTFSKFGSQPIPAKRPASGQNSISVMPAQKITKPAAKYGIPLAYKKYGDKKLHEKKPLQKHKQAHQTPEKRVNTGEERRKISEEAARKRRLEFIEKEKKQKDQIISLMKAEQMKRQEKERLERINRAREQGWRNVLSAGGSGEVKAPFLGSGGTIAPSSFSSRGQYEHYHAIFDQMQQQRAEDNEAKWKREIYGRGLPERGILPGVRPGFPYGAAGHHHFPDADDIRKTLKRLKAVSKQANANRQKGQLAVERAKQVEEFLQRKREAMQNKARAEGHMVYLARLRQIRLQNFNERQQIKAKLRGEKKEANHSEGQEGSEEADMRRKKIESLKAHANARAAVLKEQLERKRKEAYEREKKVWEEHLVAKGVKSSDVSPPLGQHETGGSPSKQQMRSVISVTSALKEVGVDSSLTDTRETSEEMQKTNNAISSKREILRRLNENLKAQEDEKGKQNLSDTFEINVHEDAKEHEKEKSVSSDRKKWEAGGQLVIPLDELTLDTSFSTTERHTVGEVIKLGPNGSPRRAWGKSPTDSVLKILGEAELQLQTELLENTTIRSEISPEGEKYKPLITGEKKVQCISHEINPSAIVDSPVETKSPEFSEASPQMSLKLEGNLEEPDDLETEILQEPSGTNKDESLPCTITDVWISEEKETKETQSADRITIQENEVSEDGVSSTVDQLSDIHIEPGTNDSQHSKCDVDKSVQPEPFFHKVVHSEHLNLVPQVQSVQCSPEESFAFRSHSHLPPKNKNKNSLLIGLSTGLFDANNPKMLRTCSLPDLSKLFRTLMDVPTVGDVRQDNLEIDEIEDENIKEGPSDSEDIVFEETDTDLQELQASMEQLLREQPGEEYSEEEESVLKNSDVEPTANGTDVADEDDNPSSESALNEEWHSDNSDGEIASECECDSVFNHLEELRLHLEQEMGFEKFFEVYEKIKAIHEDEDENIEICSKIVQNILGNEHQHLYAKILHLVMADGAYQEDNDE
Kind of assay: Off-chip Mobility Shift Assay (MSA) profiling, NEK1. Conditions: ATP approximating Km. Format: biochemical. On the procedure: (§1) Therefore, we decided to evaluate the selectivity of compound 8 against a panel of NEK kinases at 10 µM, using the technique of Off-chip Mobility shift assay. This concentration was chosen according to the guidelines proposed by Knight and Shokat, since the probability of off-target effects increases dramatically above 10 µM[36]. Furthermore, ATP concentration was set to approximate the Km,ATP for each kinase, so that the resulting selectivity profile directly reflects the intrinsic affinities of the inhibitor[37]. […] A major consequence of this substitution may be the redistribution of surface charges at the flexible activation loop resulting in an altered electrostatic potential and ability of NEK6 kinase to interact with other molecules.
(§2) The inhibitory activity of compounds 8 and 21 on NEK6 was also verified with MSA technique (Off-chip Mobility shift assay) (CARNA Biosciences Study ID: CBS170097, CARNA Biosciences, Kobe). […] PKR Inhibitor was used as positive control. For profiling study against NEK kinases (i.e. NEK1, NEK2, NEK6, NEK7, NEK9) (CARNA Biosciences Study ID: CBS170098), 8 was tested at 10 μM and ATP concentration approximating Km for each kinase. Assay condition for kinases are available on “Kinase profiling book” downloading by www.carnabio.com (https://www.carnabio.com/output/pdf/ProfilingProfilingBook_en.pdf).

The next assay concerns PEO1 (ovary). Kind of assay: Cell-based cytotoxicity assay (ATPlite), PEO1. Conditions: Homo sapiens; PEO1, 72 h, ATPlite; NA = not active (IC50 greater than 100 µM); read-out: IC50 Values (µM ± SEM). Also noted: species or system human. The text has this:
The following human carcinoma cell lines were used for the study: MDA-MB-231 and MCF-7 (breast cancer; ATCC, Sesto San Giovanni, MI), PEO1 and COV318 (ovarian cancer; ECACC, Salisbury, UK and ATCC), HCT-15 and SW948 (colon cancer; Public Health England, Salisbury, UK and ATCC), NCI-H1975 and NCI-H1299, (lung cancer; ATCC). Cells were routinely tested free of mycoplasma (MycoAlert mycoplasma detection kit, LONZA, Rockland, ME, USA) and validated by STR (Short Tandem Repeat) DNA profiling (BMR Genomics srl, PD). Cells were grown following supplier indication, in a fully humidified atmosphere of 5% CO2/95% air. All the reagents were purchased from Sigma-Aldrich (St. Louis, MO), if not otherwise specified.
Background: ATP-based viability assays read luminescence as a measure of living cells.

For another assay, the target named is T2, NEK2 (Homo sapiens, UniProt P51955).
T2 sequence (P51955 1-445): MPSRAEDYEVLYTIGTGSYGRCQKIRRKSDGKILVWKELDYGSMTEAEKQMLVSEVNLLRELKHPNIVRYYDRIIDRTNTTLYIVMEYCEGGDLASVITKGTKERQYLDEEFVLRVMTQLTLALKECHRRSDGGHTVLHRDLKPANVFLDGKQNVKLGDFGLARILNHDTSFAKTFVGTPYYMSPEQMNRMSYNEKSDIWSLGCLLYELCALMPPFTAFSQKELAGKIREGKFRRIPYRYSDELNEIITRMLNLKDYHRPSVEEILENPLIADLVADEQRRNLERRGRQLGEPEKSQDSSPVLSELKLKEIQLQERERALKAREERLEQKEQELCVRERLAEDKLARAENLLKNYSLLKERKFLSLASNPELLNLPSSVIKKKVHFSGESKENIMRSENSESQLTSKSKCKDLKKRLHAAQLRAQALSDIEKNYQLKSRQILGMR
The assay is described as follows: Off-chip Mobility Shift Assay (MSA) profiling, NEK2. Format: biochemical. Conditions: ATP approximating Km. On the procedure:
as §1, §2

Each structure is given as a SMILES string.

By inhibition is commonly meant the change of the read-out against control, counted positive when it falls. The term IC50 denotes the concentration that inhibits the measured activity by half. As to `CC1=C(C#N)C(O)=NC(=O)/C1=C\c1ccc(-c2ccccc2)o1` [Compound 8, (5Z)-2-hydroxy-4-methyl-6-oxo-5-[(5-phenylfuran-2-yl)methylidene]-5,6-dihydropyridine-3-carbonitrile], the inhibition at 10 µM at NEK1 is 47%; at NEK2, no more than 0%. Also, the IC50 in the assay on PEO1 (ovary) came out at 44 ± 6.5 µM.
